From PubChem BioAssay AID1918937 (Molecular Pharmacology Branch, DTP, NCI, 2023)

Tested on: 521955-158-R2-J5-PDC complex spheroid viability
Experiment: Anticancer human tumor 521955-158-R2-J5-PDC patient-derived pancreatic carcinoma cell line growth inhibition
Conditions: for IC50: curve of first compound; for viability, T/C: stronger effect = lower value
In short: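 Multicellular complex spheroids of tumor cells with human endothelial cells (HUVEC) and mesenchymal stem cells; the LSD1 inhibitor iadademstat was combined with standard-of-care or investigational agents. Top concentration at or near clinical Cmax, half-log dilutions; final DMSO ≤0.25%.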

[1] = second compound 0.1 µM, first compound 0.0316 µM
[2] = second compound 0.1 µM, first compound 0.1 µM
[3] = second compound 0.1 µM, first compound 0.316 µM
[4] = second compound 0.1 µM, first compound 1 µM
[5] = second compound 0.316 µM, first compound 0.0316 µM
[6] = second compound 0.316 µM, first compound 0.1 µM
[7] = second compound 0.316 µM, first compound 0.316 µM
[8] = second compound 0.316 µM, first compound 1 µM
[9] = second compound 1 µM, first compound 0.0316 µM
[10] = second compound 1 µM, first compound 0.1 µM
[11] = second compound 1 µM, first compound 0.316 µM
[12] = second compound 1 µM, first compound 1 µM
[13] = second compound 3.16 µM, first compound 0.0316 µM
[14] = second compound 3.16 µM, first compound 0.1 µM
[15] = second compound 3.16 µM, first compound 0.316 µM
[16] = second compound 3.16 µM, first compound 1 µM
[17] = second compound 10 µM, first compound 0.0316 µM
[18] = second compound 10 µM, first compound 0.1 µM
[19] = second compound 10 µM, first compound 0.316 µM
[20] = second compound 10 µM, first compound 1 µM
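Note: spheroids exposed to agents for seven days.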
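Throughout, for viability, T/C: percent of DMSO vehicle control luminescence viability.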

| SMILES | IC50 (second compound 0.1 µM) [µM] | IC50 (second compound 0.316 µM) [µM] | IC50 (second compound 1 µM) [µM] | IC50 (second compound 3.16 µM) [µM] | IC50 (second compound 10 µM) [µM] | viability, T/C [1] [%] | viability, T/C [2] [%] | viability, T/C [3] [%] | viability, T/C [4] [%] | viability, T/C [5] [%] | viability, T/C [6] [%] | viability, T/C [7] [%] | viability, T/C [8] [%] | viability, T/C [9] [%] | viability, T/C [10] [%] | viability, T/C [11] [%] | viability, T/C [12] [%] | viability, T/C [13] [%] | viability, T/C [14] [%] | viability, T/C [15] [%] | other results |
| --- | --- | --- | --- | --- | --- | --- | --- | --- | --- | --- | --- | --- | --- | --- | --- | --- | --- | --- | --- | --- | --- |
| CC(C)c1c(-c2ccccc2)nc2c(C#N)c[nH]n2c1=O + NC1CC1c1ccc(-c2cccc(O)c2)cc1 | > 10 | > 10 | > 10 | > 10 | 3.3 | 48.6 | 55.6 | 62.2 | 46.3 | 54.5 | 55.9 | 60.8 | 56.3 | 65.5 | 70.8 | 72.2 | 58.8 | 57.6 | 67.2 | 71.3 | viability, T/C (second compound 0.1 µM, first compound 3.16 µM): 54.8%; viability, T/C (second compound 0.1 µM, first compound 10 µM): 56.8%; viability, T/C (second compound 0.316 µM, first compound 3.16 µM): 54.5%; viability, T/C (second compound 0.316 µM, first compound 10 µM): 46.8%; viability, T/C (second compound 1 µM, first compound 3.16 µM): 60.6%; viability, T/C (second compound 1 µM, first compound 10 µM): 49.5%; viability, T/C [16]: 69.8%; viability, T/C (second compound 3.16 µM, first compound 3.16 µM): 58.3%; viability, T/C (second compound 3.16 µM, first compound 10 µM): 39.7%; viability, T/C [17]: 62.9%; viability, T/C [18]: 72.7%; viability, T/C [19]: 70.2%; viability, T/C [20]: 61.8%; viability, T/C (second compound 10 µM, first compound 3.16 µM): 50.9%; viability, T/C (second compound 10 µM, first compound 10 µM): 41.3% |
| Nc1ncn(C2CC(O)C(CO)O2)c(=O)n1 (stereo not given) + NC1CCC(NC2CC2c2ccccc2)CC1 | > 1 | > 1 | > 1 | 0.941 | > 1 | 93.6 | 79.7 | 69.6 | 64.2 | 85.6 | 83.4 | 63 | 55.3 | 85.3 | 74.4 | 60.5 | 56.3 | 93.1 | 75.4 | 59.1 | viability, T/C (second compound 0.1 µM, first compound 0.00316 µM): 101%; viability, T/C (second compound 0.1 µM, first compound 0.01 µM): 108%; viability, T/C (second compound 0.316 µM, first compound 0.00316 µM): 97.4%; viability, T/C (second compound 0.316 µM, first compound 0.01 µM): 96%; viability, T/C (second compound 1 µM, first compound 0.00316 µM): 99.3%; viability, T/C (second compound 1 µM, first compound 0.01 µM): 90.1%; viability, T/C (second compound 3.16 µM, first compound 0.00316 µM): 96.4%; viability, T/C (second compound 3.16 µM, first compound 0.01 µM): 95.4%; viability, T/C [16]: 49%; viability, T/C (second compound 10 µM, first compound 0.00316 µM): 95.3%; viability, T/C (second compound 10 µM, first compound 0.01 µM): 91%; viability, T/C [17]: 92.8%; viability, T/C [18]: 76.5%; viability, T/C [19]: 62.5%; viability, T/C [20]: 51.6% |
